# Assay results as given in patent US5188642A, “Glyphosate-resistant plants” (priority 1990, dated 1993).
# Experiments:
# [1] = system: E. coli 11303 SM-1; experiment: Growth of E. coli culture in glyphosate-containing growth medium; format: cell-based; settings: mutant E. coli 11303 SM-1, glyphosate 10 mM or higher in growth medium
# Description: Cells of E. coli ATCC 11303 were transferred to medium A and incubated at 37° C.
# (§1) This mutant bacterium was designated E. coli 11303 SM-1. The aroA gene encoding EPSPS from this mutant bacterium was isolated as follows.
# [2] = target: EPSPS (Escherichia coli, UniProt P0A6D3); format: biochemical, E. coli
# Text: as §1
# Isolation of aroA gene encoding EPSPS from E. coli 11303 SM-1: The DNA from this bacterium was isolated (Marmur, J. (1961) J. Mol. Biol. 3:208-218). […] This fragment was cloned into the vector pKC7 (Rao, R. N. & Rogers, S. G. (1979), Gene, F. Jul. 7, 1982) and the resulting plasmid was used for trans-formation of E. coli. […] This clone was designated pMON9538. […] This clone was designated pMON9540. […] The E. coli mutant EPSPS gene was incorporated into plant transformation vector with and without a chloroplast transit peptide in the following manner.
# [3] = system: sunflower plants; experiment: Sunflower plants sprayed with glyphosate; format: in vivo
# [4] = system: petunia plants; experiment: Plant response to glyphosate spraying (petunia plants, track sprayer); format: in vivo; settings: isopropylamine salt with ionic surfactant
# Description: Four individual representative transgenic seedlings were selected, grown and tested in the testing procedure described below, along with four individual non-transformed (wild-type) petunia seedlings.
# The plants were grown in a growth medium in a growth chamber at 26° C. with 12 hours of light per day. The plants were fertilized weekly with a soluble fertilizer and watered as needed. The plants were sprayed at a uniform and reproducible delivery rate herbicide by use of an automated track sprayer.
# The glyphosate solution used was measured as pounds of glyphosate acid equivalents per acre, mixed as the glyphosate isopropylamine salt, with an ionic surfactant.
# Four individual wild-type (non-transformed) petunia plants were selected for use as control plants. Four individual transformed plants containing the pMON546 vector were selected by kanamycin resistance as described in Horsch et al 1985.
# The control plants and the transformed plants were sprayed with the isopropylamine salt of glyphosate at the application level listed in Table 2 below; the experimental results obtained are also summarized in Table 2.
# [5] = system: tomato leaf fragments; experiment: Tomato leaf callus assay on glyphosate; format: cell-based, tomato VF36; settings: 0.5 mM glyphosate, 10 days
# Description: Sterile seedlings of VF36 tomato are grown on water agar. Hypocotyls and cotyledons are excised and cultured for 2 days on MS medium containing B5 vitamins, 30 g/l sucrose and 1 mg/l benzyladenine and 0.1 mg/l indole acetic acid. The seedlings are then infected with the A. tumefaciens vector containing the chimeric EPSPS gene described in Example 2, by immersing for about 30 seconds in a culture of A. tumefaciens containing the chimeric EPSP synthase gene that had been diluted to 10^7 bacteria/ml. Explants are obtained by cutting sections from the seedlings. The explants are blotted dry and incubated as described previously in Example 2 except that the medium contains only 10% of standard concentration of MS salts. After 2 days of coculture, the explants are transferred to selective medium containing 100 ug/ml kanamycin. Transformed tomato plants grow from the explants. Leaves from these plants are tested for glyphosate resistance using a leaf callus assay described below. Tomato leaf fragments from plants containing vector alone (pMON200) or the pMON546 chimeric EPSPS gene are incubated on callus medium described above containing 0.5 mM glyphosate.
# [6] = system: transgenic canola lines; experiment: Glyphosate spray test, reproductive scores of transgenic canola (Example 21); format: in vivo
# Text: Transgenic plants containing the Arabidopsis EPSP synthase gene containing a single glycine to alamine mutation at […] 101 driven by either the FMV promoter or the CaMVe35S promoter were obtained and analyzed for resistance to glyphosate. The transgenic plants containing the Arabidopsis EPSP synthase gene (as described above) directed by the FMV promoter contained pMON996, FIG. 12 and FIG. 13, while those plants containing the enhanced CaMVe35S promoter contained pMON899. These transgenic plants were planted and the seed from the Ro plants harvested, threshed and dried before planting for a glyphosate spray test. The progeny were planted in 4-inch square pots of Metro 350 and three types of slow release fertilizers. A goal of twenty seedlings from each Ro plant is desirable for testing. Germination frequency is usually high but overplanting ensures that twenty seedlings are present. The plants were thinned down by selecting the twenty most vigorous and erect seedlings seven to ten days after planting. A negative control (non-transformed, "Westar" variety) was planted at the same time to maintain quality and display the results. The plants were maintained and grown in a greenhouse environment. A sixteen-hour photoperiod and a temperature of 21° C. (day) and 15° C. (night) was maintained. […]
# EPSPS, sequence (P0A6D3 whole entry): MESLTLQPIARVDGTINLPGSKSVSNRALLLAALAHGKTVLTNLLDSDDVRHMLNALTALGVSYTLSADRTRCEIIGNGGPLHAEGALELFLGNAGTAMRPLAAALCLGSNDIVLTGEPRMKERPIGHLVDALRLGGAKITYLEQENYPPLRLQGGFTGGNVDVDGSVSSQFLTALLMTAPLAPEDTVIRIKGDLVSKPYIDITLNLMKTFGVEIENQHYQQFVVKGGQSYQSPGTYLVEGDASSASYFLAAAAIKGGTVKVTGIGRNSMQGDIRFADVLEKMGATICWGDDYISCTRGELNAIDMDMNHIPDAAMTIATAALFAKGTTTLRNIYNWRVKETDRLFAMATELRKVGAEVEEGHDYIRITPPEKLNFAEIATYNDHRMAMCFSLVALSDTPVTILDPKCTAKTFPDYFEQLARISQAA
compound,measurement,setting,value
"O=C(O)CNCP(=O)(O)O [glyphosate, N-phosphonomethylglycine]",growth of culture,[1],could grow rapidly
same,glyphosate sensitivity of EPSPS,[2]; EPSPS of mutant cells (E. coli 11303 SM-1) compared with wild type E. coli,significantly different from that of wild type
same,glyphosate tolerance of EPSPS,[2]; EPSPS produced by hybrid K-12/11303 SM-1 aroA gene (pMON9540),retained its glyphosate tolerance
same,plant tolerance to spray,[3]; transformed sunflower plants,demonstrate tolerance to glyphosate
same,plant response to spray,[3]; wild type sunflower plants,kill wild type plants
same,Visual Appearance,"[4]; Chimeric EPSPS transformants (pMON546), 0.8 #/acre acid equivalent",healthy and viable
same,Visual Appearance,"[4]; Control (wild-type) petunia plants, 0.4 #/acre acid equivalent",killed
same,callus growth from leaves,[5]; control leaves (pMON200 vector alone),completely inhibited and showed no signs of callus growth
same,callus growth from leaves,[5]; leaves from plants transformed with chimeric EPSPS gene (pMON546),produced callus
same,reproductive scores (scale 0-10),"[6]; 0.28 Kg/ha, 28 days after spraying, three of the seven lines with FMV promoter (pMON996) versus CaMVe35S lines (pMON899), FIG. 14",better than any of the scores from lines containing the CaMVe35S promoter (pMON899)
same,level of glyphosate tolerance,[6]; transgenic lines containing pMON899 (CaMVe35S promoter) used in FIG. 14,highest levels of glyphosate tolerance among 150 lines previously tested
